The assay deals with T1, IRAK3 (Homo sapiens, UniProt Q9Y616).
T1 construct: IRAK Endogenous HTRF Degradation Assay; endogenous in cells
T1 sequence (Q9Y616 1-596): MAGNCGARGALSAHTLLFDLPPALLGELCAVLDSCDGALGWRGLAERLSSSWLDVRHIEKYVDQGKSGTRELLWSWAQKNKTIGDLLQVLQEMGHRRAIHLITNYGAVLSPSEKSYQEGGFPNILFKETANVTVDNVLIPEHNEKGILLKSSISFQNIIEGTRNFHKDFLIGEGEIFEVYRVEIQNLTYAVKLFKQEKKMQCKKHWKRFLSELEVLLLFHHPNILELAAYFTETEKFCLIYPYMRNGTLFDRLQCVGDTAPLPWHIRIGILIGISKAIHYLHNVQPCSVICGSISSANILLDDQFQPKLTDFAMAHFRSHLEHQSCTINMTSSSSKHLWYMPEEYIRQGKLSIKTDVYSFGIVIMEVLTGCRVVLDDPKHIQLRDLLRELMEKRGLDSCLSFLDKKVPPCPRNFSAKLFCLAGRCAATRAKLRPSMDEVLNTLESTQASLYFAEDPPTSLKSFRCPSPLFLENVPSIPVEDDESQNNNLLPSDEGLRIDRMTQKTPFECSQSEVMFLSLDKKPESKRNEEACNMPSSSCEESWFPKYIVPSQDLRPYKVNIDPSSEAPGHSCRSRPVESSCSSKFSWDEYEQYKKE
Put plainly: IRAK Endogenous HTRF Degradation Assay. In kind it is cell-based. The settings on record: endogenous IRAK3, overnight incubation; for Dmax: % Dmax=100−Ymin; for DC50: concentration at which 50% degradation is achieved. How it is done:
Cells (˜50 k) were plated in Cisbio 96-well low volume white plates (Cisbio: cat #66PL96005). Compounds were dissolved in DMSO and a 3-fold serial dilution was performed using a TECAN D300E. Cells were incubated with the compound overnight. Total-IRAK3 HTRF kit from Cisbio was used for degradation analysis (Cisbio: 63ADK101PEH). Cryptate and D2 antibodies were diluted in Detection buffer as per manufacturers recommendation. Then 2 μL of each solution was added to 16 μL lysate. Buffer control (lysis buffer detection buffer), Cryptate control (lysis buffer+cryptate antibody+detection buffer), and Negative control (lysis buffer+cryptate antibody+D2 antibody) were made as per manufacturers recommendation. Post incubation with antibodies the HTRF signal was measured using a Perkin Elmer Envision reader and the HTRF signal was calculated using formula: (Emission at 665 nm/Emission at 615 nm)*10,000. All HTRF values were normalized to the average value of DMSO. The average value of the DMSO control wells were set to equal 100% of the relative IRAK3 protein levels. Normalized luminescence values were plotted on a graph as a function of compound concentration. Compound concentration was plotted on the x-axis and the corresponding normalized IRAK3 protein levels on the y-axis. The EC50 value (the half-maximum effective concentration) of a compound for the degradation of the IRAK3 was calculated using a four-parameter logistic model (sigmoidal dose−response model)(FIT=(A+{(B−A)/1+[(C/x)D]})) where C is the inflection point (EC50), D is the […], and A and B are the low and high limits of the fit, respectively). The Ymin was calculated by determining the lowest percentage of target protein remaining following compound treatment. Dmax was calculated from Ymin (% Dmax=100−Ymin).
Using these assays, IC50, Dmax, EC50, and DC50 values of the following compounds were determined. Dmax is defined as the maximum percent degradation achieved and DC50 is the concentration at which 50% degradation is achieved.
(TR-FRET usually uses a lanthanide donor and a delayed reading to cut background.)

Dmax and DC50 data for twelve compounds are collected here from patent US20260028343A1, “Substituted Imidazopyrazine Compounds as Ligand Directed Degraders of IRAK3” (Celgene Corporation, priority 2022, published 2026).

The term Dmax denotes the largest share of the target that was removed. A high value points to deep degradation. In general, DC50 refers to the midpoint of the concentration-degradation curve. A higher DC50 goes with a less potent degrader.

SMILES strings stand for the structures. A value given as a limit tells only on which side of the number the result lay.

For `Cc1cccc(-c2cnc(Nc3ccc(N4CCN(C(=O)COc5cccc6c5C(=O)N(C5CCC(=O)NC5=O)C6=O)CC4)cc3)c3nccn23)c1` (stereo not drawn) [Compound 1, 2-(2,6-Dioxopiperidin-3-yl)-4-(2-oxo-2-(4-(4-((5-(m-tolyl)imidazo[1,2-a]pyrazin-8-yl)amino)phenyl)piperazin-1-yl)ethoxy)isoindoline-1,3-dione], the Dmax is 7% and the half-maximal degradation concentration (DC50) was > 10 µM.

Consider `Cc1cccc(-c2cnc(Nc3ccc(N4CCN(C(=O)CCCNC(=O)COc5cccc6c5C(=O)N(C5CCC(=O)NC5=O)C6=O)CC4)cc3)c3nccn23)c1` (stereo not drawn) [Compound 2, 2-((2-(2,6-Dioxopiperidin-3-yl)-1,3-dioxoisoindolin-4-yl)oxy)-N-(4-oxo-4-(4-(4-((5-(m-tolyl)imidazo[1,2-a]pyrazin-8-yl)amino)phenyl)piperazin-1-yl)butyl)acetamide], for which the Dmax was found to be 13% and the DC50 was > 10 µM.

For `Cc1cccc(-c2cnc(Nc3ccc(N4CCN(C(=O)CCOCCNC(=O)COc5cccc6c5C(=O)N(C5CCC(=O)NC5=O)C6=O)CC4)cc3)c3nccn23)c1` (stereo not drawn) [Compound 3, 2-((2-(2,6-Dioxopiperidin-3-yl)-1,3-dioxoisoindolin-4-yl)oxy)-N-(2-(3-oxo-3-(4-(4-((5-(m-tolyl)imidazo[1,2-a]pyrazin-8-yl)amino)phenyl)piperazin-1-yl)propoxy)ethyl)acetamide], the Dmax stood at 3% and the DC50 was > 10 µM.

For the compound `Cc1cccc(-c2cnc(Nc3ccc(N4CCN(C(=O)COc5ccc6c(c5)C(=O)N(C5CCC(=O)NC5=O)C6=O)CC4)cc3)c3nccn23)c1` (stereo not drawn) [Compound 4, 2-(2,6-Dioxopiperidin-3-yl)-5-(2-oxo-2-(4-(4-((5-(m-tolyl)imidazo[1,2-a]pyrazin-8-yl)amino)phenyl)piperazin-1-yl)ethoxy)isoindoline-1,3-dione], the Dmax was 4% and the 50% degradation concentration (DC50) is > 10 µM.

Turning to `Cc1cccc(-c2cnc(Nc3ccc(N4CCN(C(=O)CCCNC(=O)COc5ccc6c(c5)C(=O)N(C5CCC(=O)NC5=O)C6=O)CC4)cc3)c3nccn23)c1` (stereo not drawn) [Compound 5, 2-((2-(2,6-Dioxopiperidin-3-yl)-1,3-dioxoisoindolin-5-yl)oxy)-N-(4-oxo-4-(4-(4-((5-(m-tolyl)imidazo[1,2-a]pyrazin-8-yl)amino)phenyl)piperazin-1-yl)butyl)acetamide], the maximal degradation (Dmax) stood at 18% and the DC50 is > 10 µM.

For the compound `Cc1cccc(-c2cnc(Nc3ccc(N4CCN(C(=O)CCOCCNC(=O)COc5ccc6c(c5)C(=O)N(C5CCC(=O)NC5=O)C6=O)CC4)cc3)c3nccn23)c1` (stereo not drawn) [Compound 6, 2-((2-(2,6-Dioxopiperidin-3-yl)-1,3-dioxoisoindolin-5-yl)oxy)-N-(2-(3-oxo-3-(4-(4-((5-(m-tolyl)imidazo[1,2-a]pyrazin-8-yl)amino)phenyl)piperazin-1-yl)propoxy)ethyl)acetamide], the Dmax was determined as 13% and the DC50 is > 10 µM.

Take `Cc1cccc(-c2cnc(Nc3ccc(N4CCN(CCNC(=O)COc5ccc6c(c5)C(=O)N(C5CCC(=O)NC5=O)C6=O)CC4)cc3)c3nccn23)c1` (stereo not drawn) [Compound 7, 2-((2-(2,6-Dioxopiperidin-3-yl)-1,3-dioxoisoindolin-5-yl)oxy)-N-(2-(4-(4-((5-(m-tolyl)imidazo[1,2-a]pyrazin-8-yl)amino)phenyl)piperazin-1-yl)ethyl)acetamide]: the Dmax turned out to be 27% and the DC50 was > 10 µM.

Compound `Cc1cccc(-c2cnc(Nc3cnn(C4CCN(CCNC(=O)COc5ccc6c(c5)C(=O)N(C5CCC(=O)NC5=O)C6=O)CC4)c3)c3nccn23)c1` (stereo not drawn) [Compound 8, 2-((2-(2,6-Dioxopiperidin-3-yl)-1,3-dioxoisoindolin-5-yl)oxy)-N-(2-(4-(4-((5-(m-tolyl)imidazo[1,2-a]pyrazin-8-yl)amino)-1H-pyrazol-1-yl)piperidin-1-yl)ethyl)acetamide] returned a Dmax of 73% and a 50% degradation concentration (DC50) of 0.02 µM.

As for `Cc1cccc(-c2cnc(Nc3cccc(C4CCN(CCNC(=O)COc5ccc6c(c5)C(=O)N(C5CCC(=O)NC5=O)C6=O)CC4)c3)c3nccn23)c1` (stereo not drawn) [Compound 9, 2-((2-(2,6-Dioxopiperidin-3-yl)-1,3-dioxoisoindolin-5-yl)oxy)-N-(2-(4-(3-((5-(m-tolyl)imidazo[1,2-a]pyrazin-8-yl)amino)phenyl)piperidin-1-yl)ethyl)acetamide], the Dmax came out at 33% and the half-maximal degradation concentration (DC50) was > 10 µM.

Take `Cc1cccc(-c2cnc(Nc3ccc(C4CCN(CCNC(=O)COc5ccc6c(c5)C(=O)N(C5CCC(=O)NC5=O)C6=O)CC4)cc3)c3nccn23)c1` (stereo not drawn) [Compound 10, 2-((2-(2,6-Dioxopiperidin-3-yl)-1,3-dioxoisoindolin-5-yl)oxy)-N-(2-(4-(4-((5-(m-tolyl)imidazo[1,2-a]pyrazin-8-yl)amino)phenyl)piperidin-1-yl)ethyl)acetamide]: the maximal degradation (Dmax) amounted to 30% and the DC50 is > 10 µM.

Regarding `Cc1cccc(-c2cnc(Nc3cccc(N4CCN(CCNC(=O)COc5ccc6c(c5)C(=O)N(C5CCC(=O)NC5=O)C6=O)CC4)c3)c3nccn23)c1` (stereo not drawn) [Compound 11, 2-((2-(2,6-Dioxopiperidin-3-yl)-1,3-dioxoisoindolin-5-yl)oxy)-N-(2-(4-(3-((5-(m-tolyl)imidazo[1,2-a]pyrazin-8-yl)amino)phenyl)piperazin-1-yl)ethyl)acetamide], the maximal degradation (Dmax) is 21% and the half-maximal degradation concentration (DC50) is > 10 µM.

`Cc1cccc(-c2cnc(Nc3cnn(C4CCN(C5CCC6(CC5)CCN(C(=O)c5ccc7c(c5)CN(C5CCC(=O)NC5=O)C7=O)CC6)CC4)c3)c3nccn23)c1` (stereo not drawn) [Compound 12, 3-(1-Oxo-5-(9-(4-(4-((5-(m-tolyl)imidazo[1,2-a]pyrazin-8-yl)amino)-1H-pyrazol-1-yl)piperidin-1-yl)-3-azaspiro[5.5]undecane-3-carbonyl)isoindolin-2-yl)piperidine-2,6-dione] returned a Dmax of 81% and a 50% degradation concentration (DC50) of 0.01 µM.
